# Data from patent US8952157B2, “Apoptosis-inducing agents for the treatment of cancer and immune and autoimmune diseases” (AbbVie Inc., priority 2008, dated 2015).
# Biological target: GST-Bcl-2 (Homo sapiens (Human), UniProt P10415)
# Assay: Time Resolved-Fluorescence Resonance Energy Transfer (TR-FRET) Bcl-2 binding assay
# Settings: GST-Bcl-2 1 nM, F-Bak peptide probe 100 nM, Tb-anti-GST antibody 1 nM; Ki by Wang's equation
# In short: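 Ki values derived from TR-FRET displacement of F-Bak peptide from GST-Bcl-2, detected with Tb-labelled anti-GST antibody (ex 340, em 520/495 nm). Compound dilution series started at 50 μM (2× starting concentration); room-temperature incubation 3 hours.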
# Chain of GST-Bcl-2 (P10415 whole entry): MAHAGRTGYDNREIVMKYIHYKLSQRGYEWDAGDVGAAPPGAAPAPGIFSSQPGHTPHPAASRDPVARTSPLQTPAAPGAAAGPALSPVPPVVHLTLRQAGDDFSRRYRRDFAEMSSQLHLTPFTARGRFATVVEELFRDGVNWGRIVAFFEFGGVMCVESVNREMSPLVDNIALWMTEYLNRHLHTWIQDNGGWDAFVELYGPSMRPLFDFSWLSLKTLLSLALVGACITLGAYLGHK
row,SMILES,Ki [nM]
1,"CN1CCC(Nc2ccc(S(=O)(=O)NC(=O)c3ccc(N4CCN(CC5=C(c6ccc(Cl)cc6)CC(C)(C)CC5)CC4)cc3Oc3ccc(O)cc3Cl)cc2[N+](=O)[O-])CC1 [Example 207, 2-(2-chloro-4-hydroxyphenoxy)-4-(4-{[2-(4-chlorophenyl)-4,4-dimethylcyclohex-1-en-1-yl]methyl}piperazin-1-yl)-N-({4-[(1-methylpiperidin-4-yl)amino]-3-nitrophenyl}sulfonyl)benzamide]",0.074
2,"CC1(C)CCC(CN2CCN(c3ccc(C(=O)NS(=O)(=O)c4ccc(N[C@H]5CCCN(C6CCOCC6)C5)c([N+](=O)[O-])c4)c(Oc4cc5cc[nH]c5cc4F)c3)CC2)=C(c2ccc(Cl)cc2)C1 [Example 329, 4-(4-{[2-(4-chlorophenyl)-4,4-dimethylcyclohex-1-en-1-yl]methyl}piperazin-1-yl)-2-[(6-fluoro-1H-indol-5-yl)oxy]-N-[(3-nitro-4-{[(3S)-1-tetrahydro-2H-pyran-4-ylpiperidin-3-yl]amino}phenyl)sulfonyl]benzamide]",0.108
3,"CN1CCN(Nc2ccc(S(=O)(=O)NC(=O)c3ccc(N4CCN(CC5=C(c6ccc(Cl)cc6)CC(C)(C)CC5)CC4)cc3Oc3cc4cc[nH]c4c(F)c3F)cc2[N+](=O)[O-])CC1 [Example 220, 4-(4-{[2-(4-chlorophenyl)-4,4-dimethylcyclohex-1-en-1-yl]methyl}piperazin-1-yl)-2-[(6,7-difluoro-1H-indol-5-yl)oxy]-N-({4-[(4-methylpiperazin-1-yl)amino]-3-nitrophenyl}sulfonyl)benzamide]",0.127
4,"CN1CCC(Nc2ccc(S(=O)(=O)NC(=O)c3ccc(N4CCN(CC5=C(c6ccc(Cl)cc6)CC(C)(C)CC5)CC4)cc3Oc3cccc(O)c3)cc2[N+](=O)[O-])CC1 [Example 176, 4-(4-{[2-(4-chlorophenyl)-4,4-dimethylcyclohex-1-en-1-yl]methyl}piperazin-1-yl)-2-(3-hydroxyphenoxy)-N-({4-[(1-methylpiperidin-4-yl)amino]-3-nitrophenyl}sulfonyl)benzamide]",0.24
5,"CNC(=O)c1cccc(Oc2cc(N3CCN(Cc4ccccc4-c4ccc(Cl)cc4)CC3)ccc2C(=O)NS(=O)(=O)c2ccc(NCCCN(C)C)c([N+](=O)[O-])c2)c1 [Example 104, 4-(4-((4′-chlorobiphenyl-2-yl)methyl)piperazin-1-yl)-N-(4-(3-(dimethylamino)propylamino)-3-nitrophenylsulfonyl)-2-(3-(methylcarbamoyl)phenoxy)benzamide]",2.32
6,"CC1(C)CCC(CN2CCN(c3ccc(C(=O)NS(=O)(=O)c4ccc(NC5CCN(C6CCOCC6)CC5)c([N+](=O)[O-])c4)c(Oc4ccnc(N)c4)c3)CC2)=C(c2ccc(Cl)cc2)C1 [Example 273, 2-[(2-aminopyridin-4-yl)oxy]-4-(4-{[2-(4-chlorophenyl)-4,4-dimethylcyclohex-1-en-1-yl]methyl}piperazin-1-yl)-N-({3-nitro-4-[(1-tetrahydro-2H-pyran-4-ylpiperidin-4-yl)amino]phenyl}sulfonyl)benzamide]",0.516
7,"CC1(C)CCC(CN2CCN(c3ccc(C(=O)NS(=O)(=O)c4ccc(NC5CCN(C6CCCC6)CC5)c([N+](=O)[O-])c4)c(Oc4ccccc4Cl)c3)CC2)=C(c2ccc(Cl)cc2)C1 [Example 117, 2-(2-chlorophenoxy)-4-(4-{[2-(4-chlorophenyl)-4,4-dimethylcyclohex-1-en-1-yl]methyl}piperazin-1-yl)-N-({4-[(1-cyclopentylpiperidin-4-yl)amino]-3-nitrophenyl}sulfonyl)benzamide]",0.072
8,"CC1(C)CCC(CN2CCN(c3ccc(C(=O)NS(=O)(=O)c4ccc(NC5CCN(CC6CC6)CC5)c([N+](=O)[O-])c4)c(Oc4ccccc4Cl)c3)CC2)=C(c2ccc(Cl)cc2)C1 [Example 188, 2-(2-chlorophenoxy)-4-(4-{[2-(4-chlorophenyl)-4,4-dimethylcyclohex-1-en-1-yl]methyl}piperazin-1-yl)-N-[(4-{[1-(cyclopropylmethyl)piperidin-4-yl]amino}-3-nitrophenyl)sulfonyl]benzamide]",0.073
9,"CC1(C)CC(c2ccc(Cl)cc2)=C(CN2CCN(c3ccc(C(=O)NS(=O)(=O)c4ccc(NCC5CCOCC5)c([N+](=O)[O-])c4)c(Oc4cc5cc[nH]c5cc4F)c3)CC2)CO1 [Example 277, 4-(4-{[4-(4-chlorophenyl)-6,6-dimethyl-5,6-dihydro-2H-pyran-3-yl]methyl}piperazin-1-yl)-2-[(6-fluoro-1H-indol-5-yl)oxy]-N-({3-nitro-4-[(tetrahydro-2H-pyran-4-ylmethyl)amino]phenyl}sulfonyl)benzamide]",0.017
10,"CC1(C)CCC(CN2CCN(c3ccc(C(=O)NS(=O)(=O)c4ccc(NC5CCN(CCO)CC5)c([N+](=O)[O-])c4)c(Oc4cccc(Cl)c4)c3)CC2)=C(c2ccc(Cl)cc2)C1 [Example 162, 2-(3-chlorophenoxy)-4-(4-{[2-(4-chlorophenyl)-4,4-dimethylcyclohex-1-en-1-yl]methyl}piperazin-1-yl)-N-[(4-{[1-(2-hydroxyethyl)piperidin-4-yl]amino}-3-nitrophenyl)sulfonyl]benzamide]",0.048
11,"CC1(C)CCC(CN2CCN(c3ccc(C(=O)NS(=O)(=O)c4ccc(OCC5(F)CCOCC5)c([N+](=O)[O-])c4)c(Oc4cnc(N)c(Br)c4)c3)CC2)=C(c2ccc(Cl)cc2)C1 [Example 360, 2-[(6-amino-5-bromopyridin-3-yl)oxy]-4-(4-{[2-(4-chlorophenyl)-4,4-dimethylcyclohex-1-en-1-yl]methyl}piperazin-1-yl)-N-({4-[(4-fluorotetrahydro-2H-pyran-4-yl)methoxy]-3-nitrophenyl}sulfonyl)benzamide]",0.05
12,"CC1(C)CC(c2ccc(Cl)cc2)=C(CN2CCN(c3ccc(C(=O)NS(=O)(=O)c4cnc(OCC5(F)CCOCC5)c(Cl)c4)c(Oc4cc5cc[nH]c5cc4F)c3)CC2)CO1 [Example 388, N-({5-chloro-6-[(4-fluorotetrahydro-2H-pyran-4-yl)methoxy]pyridin-3-yl}sulfonyl)-4-(4-{[4-(4-chlorophenyl)-6,6-dimethyl-5,6-dihydro-2H-pyran-3-yl]methyl}piperazin-1-yl)-2-[(6-fluoro-1H-indol-5-yl)oxy]benzamide]",0.02
13,"O=C(NS(=O)(=O)c1ccc(NCC2CCOCC2)c([N+](=O)[O-])c1)c1ccc(N2CCN(Cc3ccccc3-c3ccc(Cl)cc3)CC2)cc1Oc1cccc(OCc2ccccc2)c1 [Example 71, 2-(3-(benzyloxy)phenoxy)-4-(4-((4′-chloro-1,1′-biphenyl-2-yl)methyl)piperazin-1-yl)-N-((3-nitro-4-((tetrahydro-2H-pyran-4-ylmethyl)amino)phenyl)sulfonyl)benzamide]",31.6
14,"O=C(NS(=O)(=O)c1ccc(NCCCN2CCOCC2)c([N+](=O)[O-])c1)c1ccc(N2CCN(Cc3ccccc3-c3ccc(Cl)cc3)CC2)cc1Oc1cccc(N2CCOCC2)c1 [Example 69, 4-(4-((4′-chloro-1,1′-biphenyl-2-yl)methyl)piperazin-1-yl)-2-(3-morpholin-4-ylphenoxy)-N-((4-((3-morpholin-4-ylpropyl)amino)-3-nitrophenyl)sulfonyl)benzamide]",8.25
